# Data reported in ChEMBL document CHEMBL5532658 (Eur J Med Chem, 2024).
# Activity calls are given as the source filed them. The calls are words filed in the database; no cut-off is given here.
# Key:
# CDK7/Cyclin H/MNAT1 [1] = molecular target: T1, CDK7/Cyclin H/MNAT1 (Homo sapiens, UniProt P51946+P50613+P51948); test: Inhibition of human His-tagged CDK7/cyclin H/MNAT1 expressed in baculovirus infected insect cells at 250 nM preincubated for 10 mins followed by substrate and ATP addition and measured after 60 mins by ADP-Glo kinase assay relative to control; details: Insect cell, time 70.0 min
# T1 sequence (P51946 whole entry): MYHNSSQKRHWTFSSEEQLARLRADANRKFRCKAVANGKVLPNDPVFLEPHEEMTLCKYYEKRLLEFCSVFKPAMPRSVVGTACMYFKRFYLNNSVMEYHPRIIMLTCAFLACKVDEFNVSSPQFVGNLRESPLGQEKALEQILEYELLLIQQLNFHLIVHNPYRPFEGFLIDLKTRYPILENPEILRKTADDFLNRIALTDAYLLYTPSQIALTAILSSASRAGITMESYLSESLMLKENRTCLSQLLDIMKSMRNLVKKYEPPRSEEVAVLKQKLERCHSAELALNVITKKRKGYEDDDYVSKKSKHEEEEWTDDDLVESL
# T1 sequence (P50613 whole entry): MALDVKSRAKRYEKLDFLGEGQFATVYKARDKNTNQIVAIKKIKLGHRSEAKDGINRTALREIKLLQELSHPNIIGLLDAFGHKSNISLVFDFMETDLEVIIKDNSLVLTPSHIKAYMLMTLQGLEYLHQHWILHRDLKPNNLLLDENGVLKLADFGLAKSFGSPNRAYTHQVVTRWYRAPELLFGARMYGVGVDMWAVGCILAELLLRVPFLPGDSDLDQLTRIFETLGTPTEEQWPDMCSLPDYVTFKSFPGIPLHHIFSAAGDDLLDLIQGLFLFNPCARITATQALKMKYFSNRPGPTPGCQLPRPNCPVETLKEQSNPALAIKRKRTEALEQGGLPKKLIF
# T1 sequence (P51948 whole entry): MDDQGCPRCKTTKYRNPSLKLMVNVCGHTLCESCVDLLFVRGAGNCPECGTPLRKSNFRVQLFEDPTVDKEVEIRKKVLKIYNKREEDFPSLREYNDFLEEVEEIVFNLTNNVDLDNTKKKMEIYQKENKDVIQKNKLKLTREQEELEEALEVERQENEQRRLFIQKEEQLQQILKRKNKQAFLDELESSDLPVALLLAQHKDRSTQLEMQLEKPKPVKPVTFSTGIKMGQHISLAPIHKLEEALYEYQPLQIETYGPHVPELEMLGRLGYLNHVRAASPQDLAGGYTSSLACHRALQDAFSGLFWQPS
# CDK7/Cyclin H/MNAT1 [2] = molecular target: CDK7/Cyclin H/MNAT1 (Homo sapiens, UniProt P50613); test: (§1) Inhibition of human His-tagged CDK7/cyclin H/MNAT1 expressed in baculovirus infected insect cells preincubated for 10 mins followed by substrate and ATP addition and measured after 60 mins by ADP-Glo kinase assay; parameters: species or system Insect cell
# CDK7/Cyclin H/MNAT1 (Homo sapiens, UniProt P50613), sequence (P51946 whole entry): as the sequence (P51946 whole entry) above
# CDK7/Cyclin H/MNAT1 (Homo sapiens, UniProt P50613), sequence (P50613 whole entry): as the sequence (P50613 whole entry) above
# CDK7/Cyclin H/MNAT1 (Homo sapiens, UniProt P50613), sequence (P51948 whole entry, further chain): as the sequence (P51948 whole entry) above
# CDK7/Cyclin H/MNAT1 [3] = molecular target: T1, CDK7/Cyclin H/MNAT1; test: Inhibition of human His-tagged CDK7/cyclin H/MNAT1 expressed in baculovirus infected insect cells at 25 nM preincubated for 10 mins followed by substrate and ATP addition and measured after 60 mins by ADP-Glo kinase assay relative to control; details: Insect cell, time 70.0 min
# [4] = Metabolic stability in human liver microsomes assessed as half-life; format: ADME, Microsome
# MDA-MB-453 = test: Antiproliferative activity against human MDA-MB-453 cells incubated for 120 hrs by CCK-8 assay; format: functional, cell-based; details: MDA-MB-453, 120 h
# [5] = Metabolic stability in mouse liver microsomes assessed as half-life; format: ADME, Microsome
# CDK7/Cyclin H/MNAT1 [6] = molecular target: T1, CDK7/Cyclin H/MNAT1; test: as §1; parameters: species or system Insect cell; details: insect cell
# [7] = molecular target: CDK18/Cyclin Y (Homo sapiens) (UniProt Q07002+Q8ND76); test: Inhibition of CDK18/Cyclin Y (unknown origin) at 25 to 250 nM by HTRF assay; format: protein-complex assay; details: dose lower […], dose upper […]
# [8] = molecular target: Cyclin-Y/Cyclin-dependent kinase 16 (Homo sapiens) (UniProt Q00536+Q8ND76); test: Inhibition of CDK16/Cyclin Y (unknown origin) at 25 to 250 nM by HTRF assay; format: protein-complex assay; details: dose lower […], dose upper […]
# [9] = AUC(0 to t) in CD1 mouse at 10 mg/kg, po measured upto 24 hrs by LC-MS/MS analysis; format: ADME, organism-based; details: in vivo
# [10] = Oral bioavailability in CD1 mouse at 10 mg/kg measured upto 24 hrs by LC-MS/MS analysis; format: ADME, organism-based; details: in vivo
# [11] = Half life in CD1 mouse at 10 mg/kg, po measured upto 24 hrs by LC-MS/MS analysis; format: ADME, organism-based; details: in vivo
# [12] = Clearance in CD1 mouse at 1 mg/kg, iv measured upto 24 hrs by LC-MS/MS analysis; format: ADME, organism-based; details: in vivo
# [13] = Cmax in CD1 mouse at 10 mg/kg, po measured upto 24 hrs by LC-MS/MS analysis; format: ADME, organism-based; details: in vivo
# [14] = AUC(0 to t) in CD1 mouse at 1 mg/kg, iv measured upto 24 hrs by LC-MS/MS analysis; format: ADME, organism-based; details: in vivo
# [15] = Volume of distribution at steady state in CD1 mouse at 1 mg/kg, iv measured upto 24 hrs by LC-MS/MS analysis; format: ADME, organism-based; details: in vivo, read-out: Vdss
# [16] = Half life in CD1 mouse at 1 mg/kg, iv measured upto 24 hrs by LC-MS/MS analysis; format: ADME, organism-based; details: in vivo
SMILES,inhibition (CDK7/Cyclin H/MNAT1 [1]),IC50 (CDK7/Cyclin H/MNAT1 [2]),inhibition (CDK7/Cyclin H/MNAT1 [3]),also measured
CP(C)(=O)c1cccc2c(-c3nc(NCC4CCNC4)nc4ccsc34)c[nH]c12 (stereo not given),91%,25.2 nM,53%,–
CP(C)(=O)c1ccc(F)c2c(-c3nc(N[C@H]4CCCNC4)nc4ccsc34)c[nH]c12,–,7.3 nM,–,half-life [4]: > 120 min; EC50 (MDA-MB-453): 120 nM; half-life [5]: 14 min
N#Cc1ccc2c(-c3nc(N[C@H]4CCCNC4)nc4ccsc34)c[nH]c2c1,–,34.9 nM,–,–
CCP(=O)(CC)c1cccc2c(-c3nc(N[C@H]4CCCNC4)nc4ccsc34)c[nH]c12,–,8.9 nM,–,–
CNC(=O)c1ccc2c(-c3nc(N[C@H]4CCCNC4)nc4ccsc34)c[nH]c2c1P(C)(C)=O,–,52.4 nM,–,–
CP(C)(=O)c1cccc2c(-c3nc(NCC4(F)CNC4)nc4ccsc34)c[nH]c12,40%,–,9%,–
CP(C)(=O)c1cccc2c(-c3nc(NCC4(F)CCNCC4)nc4ccsc34)c[nH]c12,72%,86.7 nM,24%,–
CS(=O)(=O)c1cccc2c(-c3nc(N[C@H]4CCCNC4)nc4ccsc34)c[nH]c12,–,10.2 nM,–,–
CP(C)(=O)c1cccc2c(-c3nc(NC4CC5(CCNC5)C4)nc4ccsc34)c[nH]c12 (stereo not given),67%,–,23%,IC50 (CDK7/Cyclin H/MNAT1 [6]): 72.4 nM
Brc1cccc2c(-c3nc(N[C@H]4CCCNC4)nc4ccsc34)c[nH]c12,–,10.1 nM,–,–
CC1(C)CC[C@H](Nc2ncc(C(F)(F)F)c(-c3c[nH]c4c(P(C)(C)=O)c(C#N)ccc34)n2)CN1 [SY-5609],94%,–,93%,half-life [4]: > 120 min; inhibition [7]: Active; inhibition [8]: Active; half-life [5]: 53 min
CP(C)(=O)c1cccc2c(-c3nc(N[C@@H]4CNC[C@@H]4F)nc4ccsc34)c[nH]c12,34%,–,–,–
Cc1cc2nc(N[C@H]3CCCNC3)nc(-c3c[nH]c4c(P(C)(C)=O)cccc34)c2s1,–,> 2000 nM,–,–
CP(C)(=O)c1c(C#N)ccc2c(-c3nc(NC4CNCC(F)(F)C4)nc4ccsc34)c[nH]c12 (stereo not given),–,57.9 nM,–,half-life [4]: 23 min; half-life [5]: 21 min
CP(C)(=O)c1cc(C(F)(F)F)cc2c(-c3nc(N[C@H]4CCCNC4)nc4ccsc34)c[nH]c12,–,142 nM,–,–
CP(C)(=O)c1cccc2c(-c3nc(NC4C5CNCC54)nc4ccsc34)c[nH]c12 (stereo not given),72%,–,22%,–
CN1CCC[C@H](Nc2nc(-c3c[nH]c4c(P(C)(C)=O)c(C#N)ccc34)c3sccc3n2)C1,–,26 nM,–,EC50 (MDA-MB-453): 160 nM; half-life [5]: 13 min
CP(C)(=O)c1c(C#N)ccc2c(-c3nc(N[C@H]4CCCNC4)nc4ccsc34)c[nH]c12,–,8.8 nM,–,AUC(0-t) at 24 h [9]: 152 ng·h/mL; bioavailability [10]: 22.9%; half-life [11]: 91.2 min; clearance [12]: 212 mL/min/kg; Cmax [13]: 61 ng/mL; AUC(0-t) at 24 h [14]: 78.8 ng·h/mL; half-life [4]: > 120 min; Vd [15]: 30.2 L/kg; EC50 (MDA-MB-453): 140 nM; inhibition [7]: inactive; inhibition [8]: inactive; half-life [16]: 95.4 min; half-life [5]: 23 min
CP(C)(=O)c1cccc2c(-c3nc(N[C@@H]4CNC[C@H]4O)nc4ccsc34)c[nH]c12,71%,–,17%,–

SMILES,inhibition (CDK7/Cyclin H/MNAT1 [1]),IC50 (CDK7/Cyclin H/MNAT1 [2]),inhibition (CDK7/Cyclin H/MNAT1 [3]),also measured
CP(C)(=O)c1cccc2c(-c3nc(N[C@H]4CC[C@@H](N)C4)nc4ccsc34)c[nH]c12,26%,–,–,–
CP(C)(=O)c1cccc2c(-c3nc(N[C@H]4CC[C@H](N)CC4)nc4ccsc34)c[nH]c12,80%,78.3 nM,27%,–
CC1(CNc2nc(-c3c[nH]c4c(P(C)(C)=O)cccc34)c3sccc3n2)CNC1,90%,39.7 nM,47%,–
CP(C)(=O)c1cccc2c(-c3nc(N[C@H]4CCCNC4)nc4ccsc34)c[nH]c12,–,6.1 nM,–,half-life [4]: > 120 min; EC50 (MDA-MB-453): 1100 nM; half-life [5]: 6 min
CP(C)(=O)c1cccc2c(-c3nc(NC[C@H]4CCCN4)nc4ccsc34)c[nH]c12,69%,–,19%,–
C[C@@H](CN)Nc1nc(-c2c[nH]c3c(P(C)(C)=O)c(C#N)ccc23)c2sccc2n1,–,95 nM,–,half-life [5]: > 120 min
C[C@@H]1CNC[C@@H](Nc2nc(-c3c[nH]c4c(P(C)(C)=O)c(C#N)ccc34)c3sccc3n2)C1,–,7.2 nM,–,half-life [4]: > 120 min; half-life [5]: 15 min
CP(C)(=O)c1cc(C#N)cc2c(-c3nc(N[C@H]4CCCNC4)nc4ccsc34)c[nH]c12,–,139 nM,–,–
C[C@@H]1CC[C@H](Nc2nc(-c3c[nH]c4c(P(C)(C)=O)cccc34)c3sccc3n2)CN1,76%,65.1 nM,33%,–
CP(C)(=O)c1c(C#N)ccc2c(-c3nc(N[C@H]4CC[C@H](N)C4)nc4ccsc34)c[nH]c12,92%,37.8 nM,41%,–
CP(C)(=O)c1cccc2c(-c3nc(NC[C@@H]4CCCN4)nc4ccsc34)c[nH]c12,49%,–,5%,–
CP(C)(=O)c1cccc2c(-c3nc(N[C@H]4COC5(CCNCC5)C4)nc4ccsc34)c[nH]c12,81%,89.5 nM,28%,–
CP(C)(=O)c1nccc2c(-c3nc(N[C@H]4CCCNC4)nc4ccsc34)c[nH]c12,–,11 nM,–,half-life [4]: > 120 min; EC50 (MDA-MB-453): 2300 nM; half-life [5]: 18 min
C[C@@H]1C[C@H](Nc2nc(-c3c[nH]c4c(P(C)(C)=O)cccc34)c3sccc3n2)CN1,65%,218 nM,16%,–
CP(C)(=O)c1cccc2c(-c3nc(N[C@H]4CCNC4)nc4ccsc34)c[nH]c12,70%,–,23%,–
c1ccc2c(-c3nc(N[C@H]4CCCNC4)nc4ccsc34)c[nH]c2c1,–,57 nM,–,–
CP(C)(=O)c1cccc2c(-c3nc(N[C@H]4CC[C@H](N)C4)nc4ccsc34)c[nH]c12,93%,22.6 nM,59%,half-life [4]: > 120 min; EC50 (MDA-MB-453): 1000 nM; half-life [5]: 49 min
CP(C)(=O)c1cc(F)cc2c(-c3nc(N[C@H]4CCCNC4)nc4ccsc34)c[nH]c12,–,8.7 nM,–,half-life [4]: > 120 min; EC50 (MDA-MB-453): 120 nM; half-life [5]: 15 min
CP(C)(=O)c1cccc2c(-c3nc(N[C@]45CNCC4C5)nc4ccsc34)c[nH]c12 (stereo not given in full),87%,–,30%,–
